Laboratory results published in patent US11344510B2, “Arylcyclohexylamine derivatives and their use in the treatment of psychiatric disorders” (Gilgamesh Pharmaceuticals, Inc., priority 2019, dated 2022).

Assays:
[1] = HLM stability (Low Activity); assay type: in vitro ADME; details: both sexes, human, liver microsomes, pH 7.4, Condition 1 (Low Activity), 0.42 mg protein/mL
Method: For some of the compounds, stability was tested under two microsomal incubation conditions, one with normal enzymatic activity (low activity) and one with higher enzymatic loading, longer incubation time, and lower compound concentration (high activity) intended to increase metabolic lability.
(§1) HLM Stability (Low Activity). Pooled HLM from adult male and female donors (XenoTech H0630) were used. Microsomal incubations were carried out in 96-well plates in 5 aliquots of 40 μL, each (one for each time point). Liver microsomal incubation medium consisted of PBS (100 mM, pH 7.4), MgCl2 (3.3 mM), NADPH (3 mM), glucose-6-phosphate (5.3 mM), and glucose-6-phosphate dehydrogenase (0.67 units/mL), with 0.42 mg of liver microsomal protein per mL. Control incubations were performed by replacing the NADPH-cofactor system with PBS. Test compounds (2 μM, final solvent concentration 1.6%) were incubated with microsomes at 37° C., shaking at 100 rpm. Incubations were performed in duplicate. Five time points over 40 minutes were analyzed. The reactions were stopped by adding 12 volumes of 90% acetonitrile-water to incubation aliquots, followed by protein sedimentation by centrifugation at 5500 rpm for 3 minutes. Supernatants were analyzed for parent compound remaining using a fit-for-purpose liquid chromatography-tandem mass spectrometry (LC-MS/MS) method, with authentic samples of each analyte used for identity confirmation.
(§2) Data Analysis. The elimination constant (kel), half-life (t1/2) and intrinsic clearance (Clint) were determined in a plot of […] versus time, using linear regression analysis.

[2] = HLM stability (High Activity); assay type: in vitro ADME; details: both sexes, human, liver microsomes, pH 7.4, Condition 2 (High Activity), 1.0 mg protein/mL
Method: as §1, with “Stability (High” for “Stability (Low”, “with 1.0” for “with 0.42”, “compounds (1” for “compounds (2”, “over 60” for “over 40”
as §2

[3] = target: MK-801 binding site of the N-methyl-D-aspartate receptor (NMDAR); assay: NMDAR radioligand binding with [3H]MK-801, Method A; design: species or system Wistar rat; details: MK-801 site, Method A, Wistar rat brain (minus cerebellum), 5.0 nM [3H]MK-801; read-out: NMDAR Ki ± SEM
Method: Radioligand Binding—Method A. Affinity of the test compounds for NMDAR was determined in radioligand binding experiments with [^3H]MK-801 by Eurofins Panlabs, Inc., using methods adapted from the literature (Javitt et al. 1987; Reynolds et al. 1989) and under the conditions described in Table 12.

[4] = target: T1, vesicular monoamine transporter 2 (VMAT2) (Homo sapiens, UniProt Q05940); assay: Fluorescent substrate uptake inhibition, VMAT2; assay type: cell-based; details: 10 μM, transfected cells
T1 construct: expressed in transfected cells
Method: (§3) Uptake Inhibition. The ability of test compounds to block monoamine uptake by SERT, NET, DAT, and VMAT2 was determined using the Neurotransmitter Transporter Uptake Assay Kit manufactured by Molecular Devices (Cat #R8173). Briefly, stably transfected cells expressing the MAT of interest (HEK293 cells for SERT and NET; CHO cells for DAT) were grown and plated into 384-well plates at a concentration of 20,000 cells per well. Plates were then incubated for 16-20 h at 37° C. and 5% CO2. The medium was then aspirated and replaced with 25 μL of assay buffer (20 mM HEPES in HBSS, containing 0.1% BSA) containing the test compounds at the appropriate concentrations. Plates were then centrifuged at 300 rpm for 15 s and then incubated at 37° C. for 30 minutes. At this time, 25 μL of the proprietary fluorescent dye solution was added, the plates were incubated at 37° C. for 60 minutes, and then fluorescence was quantified on a plate reader (excitation wavelength=440 nm, emission wavelength=520 nm). The proprietary dye solution contains a mixture of 1) a fluorescent dye that mimics the endogenous substrates of MATs and is thereby actively transported to the intracellular compartment in the absence of an inhibitor and 2) a masking dye that inhibits the fluorescence of dye 1 in the extracellular compartment. Therefore, the overall fluorescence of the system increases as the fluorescent dye is transported into the cells.

[5] = target: T2, dopamine transporter (DAT) (Homo sapiens, UniProt Q01959); assay: Fluorescent substrate uptake inhibition, DAT; assay type: cell-based; details: 10 μM, CHO cells expressing DAT
T2 construct: expressed in transfected cells; host or cells: CHO (uptake)
Method: as §3

[6] = MLM stability (High Activity); assay type: in vitro ADME, BALB/c mice; details: male, BALB/c, mouse, liver microsomes, pH 7.4, Condition 2 (High Activity), 1.0 mg protein/mL
Method: (§4) MLM Stability (High Activity). Pooled MLM from male BALB/c mice (XenoTech M3000) were used. Microsomal incubations were carried out in 96-well plates in 5 aliquots of 40 μL each (one for each time point). Liver microsomal incubation medium consisted of PBS (100 mM, pH 7.4), MgCl2 (3.3 mM), NADPH (3 mM), glucose-6-phosphate (5.3 mM), and glucose-6-phosphate dehydrogenase (0.67 units/mL), with 1.0 mg of liver microsomal protein per mL. Control incubations were performed by replacing the NADPH-cofactor system with PBS. Test compounds (1 μM, final solvent concentration 1.6%) were incubated with microsomes at 37° C., shaking at 100 rpm. Incubations were performed in duplicate. Five time points over 60 minutes were analyzed. The reactions were stopped by adding 9 volumes of 90% acetonitrile-water to incubation aliquots, followed by protein sedimentation by centrifugation at 5500 rpm for 3 minutes. Supernatants were analyzed for parent compound remaining using a fit-for-purpose liquid chromatography-tandem mass spectrometry (LC-MS/MS) method, with authentic samples of each analyte used for identity confirmation.
as §2

[7] = target: T3, serotonin transporter (SERT) (Homo sapiens, UniProt P31645); assay: Fluorescent substrate uptake inhibition, SERT; assay type: cell-based; details: 10 μM, HEK293 cells expressing SERT
T3 construct: expressed in transfected cells; host or cells: HEK293
Method: as §3

[8] = RLM stability (High Activity); assay type: in vitro ADME, Sprague Dawley rats; details: male, Sprague Dawley, rat, liver microsomes, pH 7.4, Condition 2 (High Activity), 1 μM, 1.0 mg protein/mL
Method: as §4, with “RLM” for “MLM”, “Sprague Dawley rats” for “BALB/c mice”, “R1000, lot #1910100)” for “M3000)”
as §2

[9] = target: MK-801 binding site of the N-methyl-D-aspartate receptor (NMDAR); assay: NMDAR radioligand binding with [3H]MK-801, Method B; design: species or system Sprague Dawley rat; details: MK-801 site, Method B, male Sprague Dawley rat cortex, 5.0 nM [3H]MK-801; read-out: NMDAR Ki ± SEM
Method: Radioligand Binding—Method B. Affinity of the test compounds for NMDAR was determined in radioligand binding experiments with [^3H]MK-801 by WuXi AppTec (Hong Kong) Limited, under the conditions described in Table 13.

[10] = target: T4, norepinephrine transporter (NET) (Homo sapiens, UniProt P23975); assay: Fluorescent substrate uptake inhibition, NET; assay type: cell-based; details: 10 μM, HEK293 cells expressing NET
T4 construct: expressed in transfected cells; host or cells: HEK293
Method: as §3

[11] = HLM stability (Low Activity, Alternative Method); assay type: in vitro ADME; details: both sexes, human, liver microsomes, pH 7.4, Condition 1 column, values marked *: Low Activity, 0.50 mg protein/mL
Method: (§5) HLM Stability (Low Activity, Alternative Method). Pooled HLM from adult male and female donors (Corning 452117) were used. Microsomal incubations were carried out in multi-well plates. Liver microsomal incubation medium consisted of PBS (100 mM, pH 7.4), MgCl2 (1 mM), and NADPH (1 mM), with 0.50 mg of liver microsomal protein per mL. Control incubations were performed by replacing the NADPH-cofactor system with PBS. Test compounds (1 μM, final solvent concentration 1.0%) were incubated with microsomes at 37° C. with constant shaking. Six time points over 60 minutes were analyzed, with 60 μL aliquots of the reaction mixture being drawn at each time point. The reaction aliquots were stopped by adding 180 μL of cold (4° C.) acetonitrile containing 200 ng/mL tolbutamide and 200 ng/mL labetalol as internal standards (IS), followed by shaking for 10 minutes, and then protein sedimentation by centrifugation at 4000 rpm for 20 minutes at 4° C. Supernatant samples (80 μL) were diluted with water (240 μL) and analyzed for parent compound remaining using a fit-for-purpose liquid chromatography-tandem mass spectrometry (LC-MS/MS) method.
as §2

[12] = MLM stability (Low Activity); assay type: in vitro ADME, CD-1 mice; details: male, CD-1, mouse, liver microsomes, pH 7.4, Condition 1 (Low Activity), 0.50 mg protein/mL
Method: as §5, with “MLM” for “HLM”, “Activity).” for “Activity, Alternative Method).”, “from” for “from adult”, “CD-1 mice (XenoTech M1000)” for “and female donors (Corning 452117)”
as §2

[13] = RLM stability (Low Activity); assay type: in vitro ADME, Sprague Dawley rats; details: male, Sprague Dawley, rat, liver microsomes, pH 7.4, Condition 1 (Low Activity), 0.50 mg protein/mL
Method: as §5, with “RLM” for “HLM”, “Activity).” for “Activity, Alternative Method).”, “from” for “from adult”, “Sprague Dawley rats (XenoTech R1000)” for “and female donors (Corning 452117)”
as §2

T4 sequence (P23975 whole entry, species assumed): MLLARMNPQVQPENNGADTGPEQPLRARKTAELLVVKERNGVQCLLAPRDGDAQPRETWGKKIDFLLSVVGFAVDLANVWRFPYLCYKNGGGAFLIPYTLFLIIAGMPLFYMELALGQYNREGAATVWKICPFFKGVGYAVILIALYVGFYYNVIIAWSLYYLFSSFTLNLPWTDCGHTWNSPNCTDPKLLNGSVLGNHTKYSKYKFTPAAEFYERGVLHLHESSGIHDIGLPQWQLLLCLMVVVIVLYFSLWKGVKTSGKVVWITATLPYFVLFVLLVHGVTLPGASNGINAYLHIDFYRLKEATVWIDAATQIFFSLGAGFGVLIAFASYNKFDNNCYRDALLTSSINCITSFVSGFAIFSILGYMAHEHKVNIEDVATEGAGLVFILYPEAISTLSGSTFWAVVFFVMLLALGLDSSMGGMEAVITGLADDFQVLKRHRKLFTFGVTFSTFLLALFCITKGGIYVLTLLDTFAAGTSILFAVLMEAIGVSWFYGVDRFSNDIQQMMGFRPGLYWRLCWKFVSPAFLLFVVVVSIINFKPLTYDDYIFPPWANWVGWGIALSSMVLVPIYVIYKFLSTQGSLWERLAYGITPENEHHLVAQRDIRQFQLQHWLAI
T1 sequence (Q05940 whole entry, species assumed): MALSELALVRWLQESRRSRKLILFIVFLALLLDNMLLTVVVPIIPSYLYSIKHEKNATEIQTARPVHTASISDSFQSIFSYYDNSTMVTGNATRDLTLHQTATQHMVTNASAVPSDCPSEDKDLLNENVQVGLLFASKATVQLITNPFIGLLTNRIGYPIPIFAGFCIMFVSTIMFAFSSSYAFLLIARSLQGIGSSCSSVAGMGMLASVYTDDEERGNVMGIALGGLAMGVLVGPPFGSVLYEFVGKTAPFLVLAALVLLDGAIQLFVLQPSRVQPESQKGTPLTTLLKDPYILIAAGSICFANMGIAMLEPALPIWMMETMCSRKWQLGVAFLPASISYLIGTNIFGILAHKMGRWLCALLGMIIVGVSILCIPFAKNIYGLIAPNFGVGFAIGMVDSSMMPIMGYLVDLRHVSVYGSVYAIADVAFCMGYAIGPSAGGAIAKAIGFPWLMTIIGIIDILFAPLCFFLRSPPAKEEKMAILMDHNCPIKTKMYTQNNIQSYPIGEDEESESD
T3 sequence (P31645 whole entry, species assumed): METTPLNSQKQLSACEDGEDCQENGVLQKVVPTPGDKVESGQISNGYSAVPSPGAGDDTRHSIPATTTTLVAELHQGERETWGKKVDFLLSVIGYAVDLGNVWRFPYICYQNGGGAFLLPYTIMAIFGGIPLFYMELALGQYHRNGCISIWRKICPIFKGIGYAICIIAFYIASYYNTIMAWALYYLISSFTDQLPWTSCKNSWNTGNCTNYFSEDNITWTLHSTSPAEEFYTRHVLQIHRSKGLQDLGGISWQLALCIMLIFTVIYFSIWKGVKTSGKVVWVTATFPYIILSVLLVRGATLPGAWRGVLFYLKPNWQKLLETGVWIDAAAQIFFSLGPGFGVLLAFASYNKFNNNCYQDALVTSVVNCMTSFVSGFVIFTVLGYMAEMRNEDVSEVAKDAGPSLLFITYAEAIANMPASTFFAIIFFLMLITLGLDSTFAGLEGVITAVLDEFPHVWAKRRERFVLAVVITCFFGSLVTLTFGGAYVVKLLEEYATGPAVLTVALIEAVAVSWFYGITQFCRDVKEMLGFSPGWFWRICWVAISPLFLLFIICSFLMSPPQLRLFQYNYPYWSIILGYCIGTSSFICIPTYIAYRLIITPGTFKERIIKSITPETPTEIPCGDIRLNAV
T2 sequence (Q01959 whole entry, species assumed): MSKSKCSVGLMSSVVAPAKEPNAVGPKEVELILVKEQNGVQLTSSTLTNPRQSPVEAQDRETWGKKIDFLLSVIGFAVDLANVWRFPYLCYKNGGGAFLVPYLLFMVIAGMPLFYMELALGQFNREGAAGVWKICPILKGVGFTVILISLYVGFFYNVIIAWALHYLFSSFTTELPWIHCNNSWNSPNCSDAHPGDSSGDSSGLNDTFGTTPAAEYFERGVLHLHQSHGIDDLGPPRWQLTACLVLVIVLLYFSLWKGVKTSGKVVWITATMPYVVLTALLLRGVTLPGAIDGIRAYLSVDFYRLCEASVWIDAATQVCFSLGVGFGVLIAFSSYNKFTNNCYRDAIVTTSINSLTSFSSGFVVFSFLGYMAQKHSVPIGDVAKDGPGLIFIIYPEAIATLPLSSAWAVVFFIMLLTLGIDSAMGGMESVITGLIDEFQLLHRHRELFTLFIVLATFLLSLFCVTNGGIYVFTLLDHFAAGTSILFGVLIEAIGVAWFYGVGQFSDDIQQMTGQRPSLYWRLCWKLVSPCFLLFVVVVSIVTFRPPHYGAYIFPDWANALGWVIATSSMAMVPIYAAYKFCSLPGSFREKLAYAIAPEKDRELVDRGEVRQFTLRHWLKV

SMILES | half-life at 2 μM [1] [h] | microsomal CLint at 2 μM [1] [µL/min/mg] | half-life at 1 μM [2] [h] | microsomal CLint at 1 μM [2] [µL/min/mg] | Ki [3] [nM] | inhibition at 10 µM [4] [%] | inhibition at 10 µM [5] [%] | half-life at 1 μM [6] [h] | microsomal CLint at 1 μM [6] [µL/min/mg] | inhibition at 10 µM [7] [%] | half-life at 1 μM [8] [h] | microsomal CLint at 1 μM [8] [µL/min/mg] | Ki [9] [nM] | inhibition at 10 µM [10] [%] | half-life at 1 μM [11] [h] | microsomal CLint at 1 μM [11] [µL/min/mg] | half-life at 1 μM [12] [h] | microsomal CLint at 1 μM [12] [µL/min/mg] | half-life at 1 μM [13] [h] | microsomal CLint at 1 μM [13] [µL/min/mg]
CNC1(c2cccc(OC)c2)CCCCC1=O (racemic) [Compound 3rac] | 1.46 | 19 | 2.5 | 5 | 990 | – | – | – | – | – | – | – | – | – | – | – | – | – | – | –
CN[C@@]1(c2cccc(F)c2)CCCCC1=O [Compound 19R, (R)-2-(3-fluorophenyl)-2-(methylamino)cyclohexan-1-one] | – | – | 2.27 | 5 | – | 11 | -10.7 | 0.998 | 12 | 20.9 | 0.195 | 59 | 6800 | 8.8 | – | – | – | – | – | –
NC1(c2ccccc2)CCCCC1=O (racemic) [Compound 11rac, 2-amino-2-phenyl-cyclohexan-1-one] | 13.4 | 2 | 8.9 | 1 | 1400 | – | – | – | – | – | – | – | – | – | – | – | – | – | – | –
CC1CCN1C1(c2ccccc2)CCCCC1=O (centres unmarked) [Compound 128mix, 2-(2-methylazetidin-1-yl)-2-phenylcyclohexan-1-one] | – | – | – | – | – | 23.4 | 19.2 | – | – | 81.9 | – | – | 1900 | -2.9 | 1.45 | 15.9 | 0.338 | 68.3 | 0.457 | 50.6
